Values joined by “and” are separate entries in the source; they are usually repeats but may differ in a detail not shown here. Identical values can stand only once.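 Method: 48-hour compound exposure of cells in 96-well plates, five concentrations, linear interpolation of endpoints. At the GI50, growth is halved. Definition used: TGI = concentration required for complete inhibition of growth.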
Key:
Assay in all cases: NCI-60 cell line screen, 48 h
COLO 205 colon = test system: COLO 205 colon
OVCAR-8 ovarian = test system: OVCAR-8 ovarian
SK-OV-3 ovarian = test system: SK-OV-3 ovarian
OVCAR-5 ovarian = test system: OVCAR-5 ovarian
SN12C renal = test system: SN12C renal
A549 NSCLC = test system: A549 NSCLC
DU-145 prostate = test system: DU-145 prostate
HL-60(TB) leukemia = test system: HL-60(TB) leukemia
A498 renal = test system: A498 renal
SW-620 colon = test system: SW-620 colon

Compound	TGI (COLO 205 colon)	TGI (OVCAR-8 ovarian)	TGI (SK-OV-3 ovarian)	TGI (OVCAR-5 ovarian)	TGI (SN12C renal)	TGI (A549 NSCLC)	TGI (DU-145 prostate)	TGI (HL-60(TB) leukemia)	TGI (A498 renal)	TGI (SW-620 colon)	GI50 (COLO 205 colon) [µM]	GI50 (OVCAR-8 ovarian) [µM]	GI50 (SK-OV-3 ovarian) [µM]	GI50 (OVCAR-5 ovarian) [µM]	GI50 (SN12C renal) [µM]	GI50 (A549 NSCLC) [µM]	GI50 (DU-145 prostate) [µM]	GI50 (HL-60(TB) leukemia) [µM]	GI50 (A498 renal) [µM]	GI50 (SW-620 colon) [µM]
OC(C1=C/C(=C\c2ccncc2)c2ccccc21)c1ccncc1 (centres undefined)	29.3 µM	> 100 µM	31.8 µM	37.4 µM	35.4 µM	41.8 µM	62.2 µM	15.7 µM	27.3 µM	> 94.3 µM	–	–	–	–	–	–	–	–	–	–
c1ccc(C(=NNc2nc3ccccc3o2)c2ccccn2)nc1	14.4 µM	–	–	–	> 71.7 µM	> 34.5 µM and 16.5 µM	19.4 µM and > 34.3 µM	0.289 µM and 1.14 µM	0.834 µM and 6.5 µM	39.8 µM and 19.1 µM	0.0194	0.0389	0.0518	0.0847	0.0856	0.108	0.0775	0.0323	0.117	0.0524
S=c1nc(Oc2ccc(Cl)c(Cl)c2)[nH]c(=S)[nH]1	> 60.4 µM	97.4 µM	> 100 µM	> 100 µM	> 95.6 µM	61.4 µM	> 100 µM	> 100 µM	77.6 µM	> 100 µM	–	–	–	–	–	–	–	–	–	–
CC([C@H]1CCC2C3CCC4C[C@@H](NC=O)CC[C@]4(C)C3CC[C@@]21C)N(C)C (some centres undefined)	3.11 µM	> 46.4 µM	13.5 µM	19.3 µM	13.7 µM	11.5 µM	17.5 µM	6.79 µM	11.9 µM	3.95 µM	1.54	6.48	3.96	6.87	2.88	3.32	4.84	2.23	2.51	1.85
C=C(Cl)COC(=O)Nc1cccc(Cl)c1	> 100 µM	> 100 µM	> 100 µM	> 100 µM	> 100 µM	> 100 µM	> 100 µM	94.6 µM	90.4 µM	> 100 µM	–	–	–	–	–	–	–	–	–	–
Cc1ccccc1CN1CC2=C(CCN(Cc3ccccc3)C2=O)N2CCN=C12	> 100 µM	> 100 µM	> 52.6 µM	> 100 µM	> 100 µM	> 100 µM	> 100 µM	> 100 µM	> 100 µM	> 100 µM	–	–	–	–	–	–	–	–	–	–
O=C(Nc1ccc(-n2cc(-c3ccncc3)c(-c3ccc(Cl)c(O)c3)n2)cc1)Nc1cc(C(F)(F)F)cc(C(F)(F)F)c1	2.81 µM	5.48 µM	5.43 µM	7.21 µM	7.57 µM	4.3 µM	3.34 µM	8.84 µM	5.39 µM	4.44 µM	1.2	1.99	2.13	2.26	2.03	1.93	1.78	2.94	1.56	2.24
CC1(C)NCCC[C@]2(C)[C@H]3C=CC4=C5C[C@](C)(CO)CC[C@]5(C)CC[C@@]4(C)[C@]3(C)CC[C@@H]12	13.9 µM	6.66 µM	28.6 µM	25.3 µM	12 µM	3.71 µM	5.02 µM	7.02 µM	24.5 µM	18.8 µM	3.63	2.56	14.5	12.4	3.34	1.89	2.25	2.63	11.4	5.76
C=C1C[C@@H]2C/C=C/C(=O)C/C(C)=C\C=C\C(=O)O[C@H](C=O)C/C(C)=C/[C@H](C1)O2	17.7 µM	> 100 µM	> 100 µM	13.5 µM	20.4 µM	> 100 µM	2.32 µM	0.781 µM	> 55.6 µM	15.7 µM	0.885	1.49	5.36	2.31	0.697	1.98	0.455	0.243	> 28.5	0.449
C/C=C(\C)C(=O)N[C@H]1[C@@H](OC(C)=O)C[C@]2(C)C3CC[C@@]4(C)C(CC[C@@H]4C(C)N(C)C)C3CCC2[C@H]1O (some centres undefined)	5.91 µM	43.4 µM	22.5 µM	28.2 µM	19.6 µM	20.3 µM	21.3 µM	13.6 µM	20 µM	9.44 µM	2.15	11.2	7.95	13.8	5.55	5.41	6.4	4.53	2.73	2.63
C=C1CC[C@@]2(C#N)[C@H]3[C@H](CC[C@@H]2C)[C@@H](C)C[C@@H](CC(C)(C)C#N)[C@H]13	14.4 µM	33.7 µM	77.9 µM	–	64.8 µM	34.8 µM	16.2 µM	29.5 µM	58.1 µM	22.1 µM	1.61	0.785	6.6	–	5.71	3.52	0.337	2.48	6.6	4.65
O=[N+]([O-])c1ccc(-c2nc(N(CCO)CCO)c3ccccc3n2)o1	0.264 µM	2.88 µM	0.401 µM	5.1 µM	7.72 µM	0.822 µM	0.303 µM	2.91 µM	0.255 µM	2.55 µM	0.118	0.262	0.156	0.562	0.292	0.128	0.0352	0.311	0.119	0.265
Cc1cccc(C)c1NC(=O)/C(Cl)=C(/Cl)C(=O)O	11.4 µM	40.9 µM	45.5 µM	40.6 µM	33.7 µM	45.3 µM	64.8 µM	> 100 µM	60.6 µM	14.9 µM	–	–	–	–	–	–	–	–	–	–
O=C1/C(=C/c2ccc(O)c([N+](=O)[O-])c2)CCC/C1=C\c1ccc(O)c([N+](=O)[O-])c1	31.9 µM and 40.6 µM	50 µM and 34.7 µM	50 µM and > 100 µM	33.8 µM and 39.5 µM	26.2 µM and > 100 µM	32.4 µM and 91.7 µM	20.3 µM and 15.3 µM	50 µM and 45.1 µM	13.1 µM	50 µM and 99.2 µM	20.8	16	22.2	21.9	46.2	25.5	2.99	16.7	–	30.1

Source: PubChem BioAssay (NCI)
